According to BindingDB's records for doi:10.1021/jm1003705 (The University of Queensland, 2010):

Molecular target: T1, C3a anaphylatoxin chemotactic receptor (Homo sapiens, UniProt Q16581)
T1 sequence (Q16581 whole entry): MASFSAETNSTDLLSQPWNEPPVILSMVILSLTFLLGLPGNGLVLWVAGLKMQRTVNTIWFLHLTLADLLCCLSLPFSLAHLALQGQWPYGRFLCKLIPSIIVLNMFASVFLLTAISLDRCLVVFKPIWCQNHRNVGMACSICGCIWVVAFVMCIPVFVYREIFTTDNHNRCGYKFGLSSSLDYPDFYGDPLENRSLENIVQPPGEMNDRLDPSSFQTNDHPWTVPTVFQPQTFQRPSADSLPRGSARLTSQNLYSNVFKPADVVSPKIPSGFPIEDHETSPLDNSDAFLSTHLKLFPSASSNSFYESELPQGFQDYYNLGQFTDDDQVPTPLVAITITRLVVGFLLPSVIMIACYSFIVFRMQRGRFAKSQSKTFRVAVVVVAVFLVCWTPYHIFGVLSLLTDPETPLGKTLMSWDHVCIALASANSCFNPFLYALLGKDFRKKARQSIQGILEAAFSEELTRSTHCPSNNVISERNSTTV
Experiment: Displacement of [125I-C3a] from C3a receptor in human PBMC by scintillation counting

NC(N)=NCCC[C@H](NC(=O)COCC(c1ccccc1)c1ccccc1)C(=O)O [(S)-2-(2-(2,2-diphenylethoxy)acetamido)-5-guanidinopentanoic acid]
IC50: 125 nM
